“And” between values parts separate entries of the source, which are not always exact repeats. Identical values can stand only once.
Columns and labels:
HeLa cells [1] = test: Sphingolipid content of treated HeLa cells by quantitative mass spectrometry; format: cell-based; conditions: for Cer16 / Cer18 / Cer20 / Cer22 / Cer24 / Cer24:1 / Cer total / S1P / SM16 / SM18 / SM20 / SM22 / SM24 / SM24:1 / SM total / Sph / ratio total SM/Cer: HeLa, 42h, single replicates; for Cer16 / Cer18 / Cer20 / Cer22 / Cer24 / Cer24:1 / Cer total / S1P / SM16 / SM18 / SM20 / SM22 / SM24 / SM24:1 / SM total / Sph: 500.000 cells per sample
Method: 5.2 Cellular experiment for lipidomic analysis
Hela cells were cultured in six well plates (177000 cells per well) under standard growth conditions (DMEM with 4mM L-glutamine, 10% FBS, 1% Penicillin-Streptomycin; CO2 incubator with […]
37°C, 5% CO2). […]
After incubation, […]
the adherent cells were washed twice with ice-cold PBS and harvested by treatment with trypsin.
Cells were counted using a Countess II cell counter ( Invitrogen) and adjusted to 500.000 cells per sample. Each sample was then treated as described below.
6. Details for experimental lipidomics
Cells were subjected to lipid extraction using 1.5 mL methanol/chloroform (2:1, v:v) as described. The extraction solvent contained C17-ceramide (Cer17) and C16 -d31-sphingomyelin (d31-SM16) (both Avanti Polar Lipids, Alabaster, USA) as internal standards. Chromatographic separations were achieved on a 1260 Infinity HPLC (Agilent Technologies, Waldbronn, Germany) equipped with a Poroshell 120 EC-C8 column (3.0 × 150 mm, 2.7 µm; Agilent Technologies). A mobile phase system consisting of water (solvent A) and acetonitrile/methanol (1:1, v:v; solvent B), both acidified with 0.1% formic acid, was used for gradient elution at an initial composition of 40:60 (A:B, v:v) and a flow rate of 0.5 mL/min. MS/MS analyses were carried out using a 6490 triple-quadrupole mass spectrometer (Agilent Technologies) operating in the positive electrospray ionization mode (ESI+). The following ion source parameters were set: sheath gas temperature, 375 °C; sheath gas flow, 12 L/min of nitrogen; nebulizer pressure, 30 psi; drying gas temperature, 200 °C; drying gas flow, 15 L/min of nitrogen; capillary voltage, 4000 V; nozzle voltage, 1500 V; iFunnel high pressure RF voltage, 150 V and iFunnel low pressure RF voltage, 60 V. The following mass transitions were recorded (collision energies of 25 eV for all transitions): ceramides: m/z […]
with MassHunter Software (Agilent Technologies). Significance of differences between two samples was calculated by student’s t -test. Asterisks indicate significant differences between treated and untreated samples: * p<0.05; ** p<0.01; *** p<0.005.
Table S1. Sphingolipid content of treated cells.
(§1) (1 picture or pasted object on this page, not shown here)

HeLa cells [2] = test: Cellular localization of BODIPY-ceramide by confocal microscopy; format: cell-based; conditions: 10 µM inhibitor, 2 h
Method: 5.1 Cellular Localization of BODIPY-Ceramide
HeLa cells were seeded in 8 well chamber slides (ibidi µ-Slide 8 Well) in RPMI 1640 medium supplemented with 10% (v/v) heat‐inactivated FCS, 1 mM sodium pyruvate and 2 mM L-glutamine at 37 °C and 5% (v/v) CO2 in a humidified incubator. The day after, cells were incubated with inhibitors for 2 h at a concentration of 10 µM or left untreated by replacing the medium with fresh medium supplemented with the respective inhibitors. After 2 h of incubation, BODIPY FL C5-ceramide (Thermo Fisher) was added to a final concentration of 0,25 µM and imaging was immediately done using an LSM 780 laser scanning confocal microscope (Carl Zeiss). No additional wash steps were performed. After 1 h of incubation, DNA was counterstained using Hoechst 33342. For quantification of BODIPY-Ceramide trafficking, cells were transfected with pECFP-GalT the day before inhibitor incubation for the expression of an eCFP fusion of the human galactosyltransferase (GalT; amino acids 1-60), which localizes at the Golgi apparatus. After incubation with the respective inhibitors (see above), cells were imaged at 30 min post addition of BODIPY FL C5-ceramide. Mean BODIPY intensities of regions of interest surrounding eCFP-GalT-positive Golgi stacks were measured (40 cells per biological replicate, 4 biological replicates in total) using ImageJ software (Rasband, W.S., ImageJ, U. S. National Institutes of Health, Bethesda, Maryland, USA, https://imagej.nih.gov/ij/, 1997-2018) and divided by the total BODIPY intensity detected in the field of view. Quantification (Fig 10B) is expressed as normalized intensity ratio (GA/total).
Figure S10. A Uptake of BODIPY FL C5-ceramide to HeLa cells assessed by normalized fluorescence intensity B Distribution of BODIPY FL C5-ceramide by normalized fluorescence […]
as §1
Figure S11. BODIPY-Ceramide trafficking. Confocal images showing distribution of BODIPY FL C5-ceramide (green) and Golgi apparatus costaining (eCFP-GalT; blue) in HeLa cells pretreated with 10 µM of respective inhibitors or left untreated. Figures show representative images (n = 4 biological replicates with 40 cells per biological replicate); scale bars, 10 µm.

Structure (SMILES): O=C(NC1CCN(CCCCC2(C(=O)NCC(F)(F)F)c3ccccc3-c3ccccc32)CC1)c1ccccc1-c1ccc(C(F)(F)F)cc1 [8E8, lomitapide]
- effect on sphingomyelin at 5 μM (HeLa cells [1]; HeLa cells, 5 μM): drastic reduction
- effect on total sphingomyelin (HeLa cells [1]; HeLa cells, 48 hours, serum-reduced medium): dose‐dependent reduction
- potency on relation of total sphingomyelin to ceramide compared to HPA-12 (HeLa cells [1]; HeLa cells, all concentrations): increased potency
- Cer16 (HeLa cells [1]; 1 µM): 66,02 pmol/sample and 57,09 pmol/sample and 60,15 pmol/sample
- Cer18 (HeLa cells [1]; 1 µM): 7,66 pmol/sample and 6,67 pmol/sample and 6,95 pmol/sample
- Cer20 (HeLa cells [1]; 1 µM): 2,25 pmol/sample and 1,77 pmol/sample and 2,84 pmol/sample
- Cer22 (HeLa cells [1]; 1 µM): 14,47 pmol/sample and 13,05 pmol/sample and 13,35 pmol/sample
- Cer24 (HeLa cells [1]; 1 µM): 34,96 pmol/sample and 30,93 pmol/sample and 30,90 pmol/sample
- Cer24:1 (HeLa cells [1]; 1 µM): 73,09 pmol/sample and 65,48 pmol/sample and 68,22 pmol/sample
- Cer total (HeLa cells [1]; 1 µM): 198,45 pmol/sample and 178,06 pmol/sample and 179,34 pmol/sample
- S1P (HeLa cells [1]; 1 µM): 1,12 pmol/sample and 1,00 pmol/sample and 0,85 pmol/sample
- SM16 (HeLa cells [1]; 1 µM): 1825,61 pmol/sample and 1823,48 pmol/sample and 1739,12 pmol/sample
- SM18 (HeLa cells [1]; 1 µM): 59,37 pmol/sample and 58,79 pmol/sample and 52,57 pmol/sample
- SM20 (HeLa cells [1]; 1 µM): 20,60 pmol/sample and 20,35 pmol/sample and 17,81 pmol/sample
- SM22 (HeLa cells [1]; 1 µM): 115,26 pmol/sample and 124,65 pmol/sample and 105,99 pmol/sample
- SM24 (HeLa cells [1]; 1 µM): 173,05 pmol/sample and 183,46 pmol/sample and 158,17 pmol/sample
- SM24:1 (HeLa cells [1]; 1 µM): 817,85 pmol/sample and 842,40 pmol/sample and 760,17 pmol/sample
- SM total (HeLa cells [1]; 1 µM): 3011,74 pmol/sample and 3053,13 pmol/sample and 2833,83 pmol/sample
- Sph (HeLa cells [1]; 1 µM): 3,57 pmol/sample and 3,81 pmol/sample and 3,42 pmol/sample
- ratio total SM/Cer (HeLa cells [1]; 1 µM): 16,8 and 15,4 and 15,9
- Cer16 (HeLa cells [1]; 2.5 µM): 74,51 pmol/sample and 82,98 pmol/sample and 79,41 pmol/sample
- Cer18 (HeLa cells [1]; 2.5 µM): 8,90 pmol/sample and 10,02 pmol/sample and 9,50 pmol/sample
- Cer20 (HeLa cells [1]; 2.5 µM): 2,09 pmol/sample and 2,26 pmol/sample and 2,11 pmol/sample
- Cer22 (HeLa cells [1]; 2.5 µM): 14,83 pmol/sample and 17,07 pmol/sample and 15,69 pmol/sample
- Cer24 (HeLa cells [1]; 2.5 µM): 32,62 pmol/sample and 36,00 pmol/sample and 36,33 pmol/sample
- Cer24:1 (HeLa cells [1]; 2.5 µM): 74,15 pmol/sample and 79,98 pmol/sample and 77,75 pmol/sample
- Cer total (HeLa cells [1]; 2.5 µM): 207,10 pmol/sample and 228,30 pmol/sample and 220,79 pmol/sample
- S1P (HeLa cells [1]; 2.5 µM): 0,75 pmol/sample and 1,06 pmol/sample and 1,09 pmol/sample
- SM16 (HeLa cells [1]; 2.5 µM): 1630,84 pmol/sample and 1823,72 pmol/sample and 1666,50 pmol/sample
- SM18 (HeLa cells [1]; 2.5 µM): 53,11 pmol/sample and 57,73 pmol/sample and 55,13 pmol/sample
- SM20 (HeLa cells [1]; 2.5 µM): 19,44 pmol/sample and 21,11 pmol/sample and 18,70 pmol/sample
- SM22 (HeLa cells [1]; 2.5 µM): 103,91 pmol/sample and 113,22 pmol/sample and 105,74 pmol/sample
- SM24 (HeLa cells [1]; 2.5 µM): 157,53 pmol/sample and 168,83 pmol/sample and 156,81 pmol/sample
- SM24:1 (HeLa cells [1]; 2.5 µM): 722,25 pmol/sample and 731,59 pmol/sample and 797,90 pmol/sample
- SM total (HeLa cells [1]; 2.5 µM): 2725,14 pmol/sample and 2696,43 pmol/sample and 2982,51 pmol/sample
- Sph (HeLa cells [1]; 2.5 µM): 3,63 pmol/sample and 3,39 pmol/sample and 3,50 pmol/sample
- ratio total SM/Cer (HeLa cells [1]; 2.5 µM): 12,3 and 13,0 and 13,1
- Cer16 (HeLa cells [1]; 5 µM): 89,79 pmol/sample and 129,48 pmol/sample and 69,03 pmol/sample
- Cer18 (HeLa cells [1]; 5 µM): 7,26 pmol/sample and 11,79 pmol/sample and 5,12 pmol/sample
- Cer20 (HeLa cells [1]; 5 µM): 1,69 pmol/sample and 2,84 pmol/sample and 1,31 pmol/sample
- Cer22 (HeLa cells [1]; 5 µM): 12,62 pmol/sample and 18,55 pmol/sample and 9,43 pmol/sample
- Cer24 (HeLa cells [1]; 5 µM): 22,56 pmol/sample and 31,76 pmol/sample and 18,74 pmol/sample
- Cer24:1 (HeLa cells [1]; 5 µM): 66,19 pmol/sample and 87,40 pmol/sample and 47,19 pmol/sample
- Cer total (HeLa cells [1]; 5 µM): 200,11 pmol/sample and 281,82 pmol/sample and 150,81 pmol/sample
- S1P (HeLa cells [1]; 5 µM): 0,37 pmol/sample and 0,42 pmol/sample and 0,53 pmol/sample
- SM16 (HeLa cells [1]; 5 µM): 450,01 pmol/sample and 691,68 pmol/sample and 345,52 pmol/sample
- SM18 (HeLa cells [1]; 5 µM): 25,94 pmol/sample and 35,37 pmol/sample and 18,65 pmol/sample
- SM20 (HeLa cells [1]; 5 µM): 8,48 pmol/sample and 11,39 pmol/sample and 5,85 pmol/sample
- SM22 (HeLa cells [1]; 5 µM): 36,80 pmol/sample and 52,48 pmol/sample and 26,91 pmol/sample
- SM24 (HeLa cells [1]; 5 µM): 50,34 pmol/sample and 70,92 pmol/sample and 33,38 pmol/sample
- SM24:1 (HeLa cells [1]; 5 µM): 200,60 pmol/sample and 298,06 pmol/sample and 137,99 pmol/sample
- SM total (HeLa cells [1]; 5 µM): 772,16 pmol/sample and 1159,90 pmol/sample and 568,29 pmol/sample
- Sph (HeLa cells [1]; 5 µM): 3,46 pmol/sample and 3,80 pmol/sample and 3,91 pmol/sample
- ratio total SM/Cer (HeLa cells [1]; 5 µM): 3,9 and 4,1 and 3,8
- effect on intracellular distribution of BODIPY-Cer (HeLa cells [2]): significantly influenced
